From patent US20040043420A1, “Method of identifying conformation-sensitive binding peptides and uses thereof” (priority 2003, published 2004)

T1: ER α (UniProt P03372 1-595, limits assumed)
T1 construct: also called estrogen receptor α; ERα-ERE
T1 sequence (looked up): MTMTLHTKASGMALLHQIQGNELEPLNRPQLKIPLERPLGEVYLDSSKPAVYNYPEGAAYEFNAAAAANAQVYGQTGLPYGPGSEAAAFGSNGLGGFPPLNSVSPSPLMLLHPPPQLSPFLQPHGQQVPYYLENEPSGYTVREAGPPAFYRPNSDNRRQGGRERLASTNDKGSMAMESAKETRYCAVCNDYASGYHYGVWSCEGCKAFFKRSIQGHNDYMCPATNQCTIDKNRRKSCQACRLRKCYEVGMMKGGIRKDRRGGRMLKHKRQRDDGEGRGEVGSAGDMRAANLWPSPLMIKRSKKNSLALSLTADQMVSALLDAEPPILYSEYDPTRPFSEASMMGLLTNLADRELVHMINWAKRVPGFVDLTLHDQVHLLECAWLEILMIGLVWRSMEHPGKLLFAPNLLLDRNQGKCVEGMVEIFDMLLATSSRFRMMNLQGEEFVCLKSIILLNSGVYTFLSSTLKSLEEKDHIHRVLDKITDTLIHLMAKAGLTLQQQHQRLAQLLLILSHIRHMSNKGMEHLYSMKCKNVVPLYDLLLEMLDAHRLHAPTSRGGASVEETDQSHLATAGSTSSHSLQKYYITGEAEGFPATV

T2: androgen receptor (Homo sapiens, UniProt P10275)
T2 sequence (P10275 1-920): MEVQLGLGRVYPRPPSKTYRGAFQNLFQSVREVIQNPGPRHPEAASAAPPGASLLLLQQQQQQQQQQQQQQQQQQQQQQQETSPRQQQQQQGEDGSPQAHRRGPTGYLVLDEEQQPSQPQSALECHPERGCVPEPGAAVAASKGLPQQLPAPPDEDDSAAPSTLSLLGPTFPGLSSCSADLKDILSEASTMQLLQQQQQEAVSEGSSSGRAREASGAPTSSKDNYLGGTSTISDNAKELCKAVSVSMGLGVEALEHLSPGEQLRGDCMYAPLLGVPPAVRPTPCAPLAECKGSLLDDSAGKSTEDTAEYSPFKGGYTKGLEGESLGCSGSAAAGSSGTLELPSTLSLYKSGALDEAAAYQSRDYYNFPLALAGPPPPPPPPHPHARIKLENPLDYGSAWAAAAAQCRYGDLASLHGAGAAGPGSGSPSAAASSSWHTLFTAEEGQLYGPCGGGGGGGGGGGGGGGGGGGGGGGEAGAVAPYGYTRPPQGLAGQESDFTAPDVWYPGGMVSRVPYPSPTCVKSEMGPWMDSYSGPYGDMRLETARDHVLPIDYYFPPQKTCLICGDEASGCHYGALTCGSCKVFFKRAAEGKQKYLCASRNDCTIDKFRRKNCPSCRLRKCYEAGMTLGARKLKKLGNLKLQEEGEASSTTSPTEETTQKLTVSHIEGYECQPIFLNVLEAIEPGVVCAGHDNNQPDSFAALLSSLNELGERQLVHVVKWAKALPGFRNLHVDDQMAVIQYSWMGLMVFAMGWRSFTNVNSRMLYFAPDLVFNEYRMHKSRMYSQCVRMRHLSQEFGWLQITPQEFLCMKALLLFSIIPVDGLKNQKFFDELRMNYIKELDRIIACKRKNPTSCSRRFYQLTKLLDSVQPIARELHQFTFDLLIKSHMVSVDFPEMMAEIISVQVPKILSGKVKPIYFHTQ

B1: 9E (peptide)
peptide: SSHGILWRLLSEGSR

Molecular target: T1, ER α
Assay: phage isolated on ERα-ERE; Estradiol
Settings: not given

| Molecule | binding result |
| --- | --- |
| B1 | binds |

Molecular target: T2, androgen receptor
Assay: not given
Type: cell-based
Design: expressed in transfected cells
Settings: not given
Excerpt: We used a mammalian two-hybrid system to determine specificities of the AR-binding peptides previously identified, through screening of the aforementioned yeast library, as ligand-dependent in their binding activity. Ligand was provided to the cells so the interaction could be observed. The human hepatoma cell line, Huh-7, was used as the recipient of two-hybrid vectors, pM and pVP16 (Clontech) (FIGS. 6A and 6B), containing fusions with peptide and AR, respectively. According to Clontech literature, the Clontech vectors pM and VP16 generate fusions of protein X with the GAL4 DNA-BD and fusions of protein Y with the VP16AD, in the Mammalian MM Two-Hybrid Assay Kit (#K1602-1). (Note: pM and VP16 contain unique cloning sites in the same order and reading frame as the DNA-BD and AD, respectively, vectors in the yeast […] Two-Hybrid Systems.) A third vector, pG5CAT, provides a CAT reporter gene under the control of a GAL4-responsive element and minimal promoter of the adenovirus E1b. The three vectors are cotransfected into any suitable mammalian host cell line by standard methods. The interaction between proteins X and Y is then assayed by measuring CAT gene expression by any standard method. In the absence-of activation (i.e., no protein-protein interaction), the minimal E1b promoter will not express significant levels of CAT.
Briefly, cells are seeded in a 24-well culture plate to a density of 50-80% confluence in phenol red-free media containing charcoal-dextran stripped fetal bovine serum (10%). Following incubation overnight, cells are transfected with plasmids pM-peptide, pVP16-AR, pCMV-b-gal, and p5XGAL-Luc3 DNAs using lipofectamine 2000 (LifeTech) according to the manufacturer's protocol. Transfections are allowed to proceed for 6 hours and the transfection media is aspirated and replaced with recovery media for 18 hours. Following the recovery period, cells are treated with compound for 24 hours prior to cell harvesting. Cells are washed with PBS and then lysed using the lysis buffer from the Galacto-Light Plus β-galactosidase assay kit (Tropix). Assays for luciferase and β-galactosidase were performed as described by the manufacturer. Peptide/AR interactions are described in terms of the luciferase activity normalized for transfection efficiency using β-galactosidase activity (see FIG. 4A). Two types of useful information arose from these methods: 1) we generated a panel of useful peptide probes to analyze the conformational state of AR, and 2) we “fingerprinted” AR modulators with respect to AR conformation (FIG. 4B). […] FIG. 4B is the converse of 4A. It compares the ability of six ligands (DHT, MPA, CYP, RU486, FLUT and DHEAs to interact with AR in the presence of each of four peptides (D30, 5G11, B8H3 and […]). Thus, it is a “fingerprint” of each of the six ligands using a four peptide panel. (Note that “1269” and D30″ refer to the same peptide.)

| Molecule | Mammalian Cell Specificity Graph (FIG. 4): CYP. |
| --- | --- |
| EFHSRLRVEVVSWGIGSTCSQANSGRISYDL* [B8H3] | 10.47 Relative Light Units |
| HPTHSSRLWELLMEATPTM [D30] | 11.18 Relative Light Units |
| EFRSSVFEQMYLCTGGSLDLOPS* [B5G11] | 4.462 Relative Light Units |

Same assay, conditions: ligand DHT

| Molecule | Mammalian Cell Specificity Graph (FIG. 4): DHT |
| --- | --- |
| EFHSRLRVEVVSWGIGSTCSQANSGRISYDL* [B8H3] | 11.6 Relative Light Units |
| HPTHSSRLWELLMEATPTM [D30] | 12.59 Relative Light Units |
| EFRSSVFEQMYLCTGGSLDLOPS* [B5G11] | 15.84 Relative Light Units |

Same assay, conditions: ligand MPA

| Molecule | Mammalian Cell Specificity Graph (FIG. 4): MPA |
| --- | --- |
| EFHSRLRVEVVSWGIGSTCSQANSGRISYDL* [B8H3] | 11.33 Relative Light Units |
| HPTHSSRLWELLMEATPTM [D30] | 15.62 Relative Light Units |
| EFRSSVFEQMYLCTGGSLDLOPS* [B5G11] | 8.029 Relative Light Units |

Same assay, conditions: ligand RU486

| Molecule | Mammalian Cell Specificity Graph (FIG. 4): RU486 |
| --- | --- |
| EFHSRLRVEVVSWGIGSTCSQANSGRISYDL* [B8H3] | 3.879 Relative Light Units |
| HPTHSSRLWELLMEATPTM [D30] | 0.8461 Relative Light Units |
| EFRSSVFEQMYLCTGGSLDLOPS* [B5G11] | 0.1051 Relative Light Units |

Same assay, conditions: no compound

| Molecule | Mammalian Cell Specificity Graph (FIG. 4): no compound |
| --- | --- |
| EFHSRLRVEVVSWGIGSTCSQANSGRISYDL* [B8H3] | 0.1316 Relative Light Units |
| HPTHSSRLWELLMEATPTM [D30] | 0.03854 Relative Light Units |
| EFRSSVFEQMYLCTGGSLDLOPS* [B5G11] | 0.05028 Relative Light Units |

Molecular target: T2, androgen receptor
Assay: Yeast two-hybrid screening of unbiased X15 peptide library, ligand-induced β-galactosidase activity (FIG. 3, Table 503)
Type: cell-based
Design: expressed in transfected cells; host or cells: Saccharomyces cerevisiae PJ69-4α
Settings: not given
Excerpt: Our library contained predominantly 15 random amino acid residues/peptide in order to identify motifs that might interact with nuclear receptor domains. If ligand is provided to the cells, one can screen for peptides that interact with the ligand-bound receptor. […] Included at the ends of the oligonucleotide were the synthetic restriction endonuclease cleavage sites, EcoRI or Mfe I (5′ end) and Sal I (3′ end). Oligonucleotides were annealed, then cleaved with excess restriction endonuclease and purified on agarose gels. The purified set of oligonucleotides was subcloned as an in-frame carboxy-terminal fusion to a Gal4 DNA binding domain (plasmid vector pMA424 derivative). […] The transformation mix was divided and grown on plates of selective media containing ligand and 25 mM 3-aminotriazole at 30° C. until colonies appeared in 3-7 days. […] Dihydrotestosterone (DHT) and medroxyprogesterone (MPA) were added to the media at 100 nM to identify peptides that interact with the receptor in the presence of ligand. After colonies appeared they were picked and dispersed into individual wells of a 96-well plate containing rich media (YPD).
To determine ligand dependence, two microliter aliquots were removed from the cell suspension, and arrayed and spotted onto each of two rectangular agar plates, one with 100 nM ligand and one without ligand. Growth was monitored daily.
A secondary test of ligand dependent activation was performed using the integrated GAL4-driven lacZ gene. Cell suspensions of the initial positive clones were diluted 20-fold into 20 microliters of rich media in a microplate and grown overnight at 30° C. in the presence and absence of ligand. Microplates were centrifuged for 5 minutes at 3000 rpm in a swinging table top centrifuge to pellet the yeast cells, and the overlying media was aspirated. […] An OD650 density determination was made to normalize the β-galactosidase activity. β-galactosidase activity was monitored following the addition of buffer containing chlorophenol red-1-galactopyranoside (CPRG) (Boehringer Mannheim) substrate at a final concentration of 0.5 mM. […] The maximum slope value of this measurement was normalized to cell density from the initial OD650 value, and the relative ligand dependence of β-galactosidase was determined by comparing the values plus and minus ligand.
In FIG. 3, all of these ligands were tested. The plasmids from true positives were extracted using standard yeast extraction protocols and re-transformed to verify the positive phenotype.

| Molecule | Fold induction |
| --- | --- |
| EFVNWDAVVPWSELVALLDLOPS [B8A10] | 1 |
| EFHSRLRVEVVSWGIGSTCSQANSGRISYDL* [B8H3] | 22 |
| EFRQSFVSEILGGGWLPLDLOPS [M2H3] | 10 |

Same assay, conditions: ligand CPA

| Molecule | Yeast Specificity Graph (FIG. 3): CPA |
| --- | --- |
| EFVNWDAVVPWSELVALLDLOPS [B8A10] | 0.3955 |
| EFHSRLRVEVVSWGIGSTCSQANSGRISYDL* [B8H3] | 0.3927 |
| EFRFPFHEMVREWESMGLERVRYAEP [M4D1] | −0.03955 |
| EFPELLAMTRWGRHAALLEPQRLPPPRTTTQPQTEFERMFFFTRPMRTTGLLDLOPS* [B2A7] | 0.2919 |
| EFRQSFVSEILGGGWLPLDLOPS [M2H3] | 8.592 |
| EFRSSVFEQMYLCTGGSLDLOPS* [B5G11] | 0.9726 |

Same assay, conditions: ligand DHT

| Molecule | Yeast Specificity Graph (FIG. 3): DHT |
| --- | --- |
| EFVNWDAVVPWSELVALLDLOPS [B8A10] | 0.6163 |
| EFHSRLRVEVVSWGIGSTCSQANSGRISYDL* [B8H3] | 3.807 |
| EFRFPFHEMVREWESMGLERVRYAEP [M4D1] | 0.3948 |
| EFPELLAMTRWGRHAALLEPQRLPPPRTTTQPQTEFERMFFFTRPMRTTGLLDLOPS* [B2A7] | 1.719 |
| EFRQSFVSEILGGGWLPLDLOPS [M2H3] | 24.12 |
| EFRSSVFEQMYLCTGGSLDLOPS* [B5G11] | 3.964 |

Same assay, conditions: ligand MPA

| Molecule | Yeast Specificity Graph (FIG. 3): MPA |
| --- | --- |
| EFRFPFHEMVREWESMGLERVRYAEP [M4D1] | 1.698 |
| EFRQSFVSEILGGGWLPLDLOPS [M2H3] | 19.25 |

Same assay, conditions: ligand RU

| Molecule | Yeast Specificity Graph (FIG. 3): RU |
| --- | --- |
| EFVNWDAVVPWSELVALLDLOPS [B8A10] | 0.4 |
| EFHSRLRVEVVSWGIGSTCSQANSGRISYDL* [B8H3] | −0.0 |
| EFRFPFHEMVREWESMGLERVRYAEP [M4D1] | 0.1 |
| EFPELLAMTRWGRHAALLEPQRLPPPRTTTQPQTEFERMFFFTRPMRTTGLLDLOPS* [B2A7] | 0.5 |
| EFRQSFVSEILGGGWLPLDLOPS [M2H3] | 6.8 |
| EFRSSVFEQMYLCTGGSLDLOPS* [B5G11] | 0.9 |

Same assay, conditions: ligand Test

| Molecule | Yeast Specificity Graph (FIG. 3): Test |
| --- | --- |
| EFRFPFHEMVREWESMGLERVRYAEP [M4D1] | 0.1337 |
| EFRQSFVSEILGGGWLPLDLOPS [M2H3] | 26.57 |

Same assay, conditions: no ligand

| Molecule | Yeast Specificity Graph (FIG. 3): No Lig |
| --- | --- |
| EFVNWDAVVPWSELVALLDLOPS [B8A10] | 0.8753 |
| EFHSRLRVEVVSWGIGSTCSQANSGRISYDL* [B8H3] | 0.1737 |
| EFRFPFHEMVREWESMGLERVRYAEP [M4D1] | 0 |
| EFPELLAMTRWGRHAALLEPQRLPPPRTTTQPQTEFERMFFFTRPMRTTGLLDLOPS* [B2A7] | 0.3711 |
| EFRQSFVSEILGGGWLPLDLOPS [M2H3] | 2.53 |
| EFRSSVFEQMYLCTGGSLDLOPS* [B5G11] | 0.6382 |
